Test results published in patent publication US20190231787A1, “METHODS AND COMPOUNDS FOR TREATING ALCOHOL USE DISORDERS AND ASSOCIATED DISEASES” (PHARMATROPHIX, INC., priority 2016, published 2019).
Entries after “also recorded” stand apart in the source; their conditions may differ. One block for each molecule: values may come before it.

Key:
p75NTR [1] = biological target: T1, p75NTR (Homo sapiens, UniProt P08138); conditions: Massa et al., 2006; Longo and Massa, 2013; cited from earlier work
T1 sequence (P08138 29-427): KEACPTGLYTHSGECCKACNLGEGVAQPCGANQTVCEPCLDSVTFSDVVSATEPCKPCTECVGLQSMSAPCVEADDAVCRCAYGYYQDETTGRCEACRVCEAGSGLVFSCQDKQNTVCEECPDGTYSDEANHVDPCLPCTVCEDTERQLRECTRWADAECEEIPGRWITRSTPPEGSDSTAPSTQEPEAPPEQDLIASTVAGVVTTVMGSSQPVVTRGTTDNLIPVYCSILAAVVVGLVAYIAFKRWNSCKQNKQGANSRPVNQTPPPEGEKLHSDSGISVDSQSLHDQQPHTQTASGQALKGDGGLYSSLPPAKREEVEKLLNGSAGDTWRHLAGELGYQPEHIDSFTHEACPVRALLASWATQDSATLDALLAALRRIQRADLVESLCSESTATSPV

[2] = system: p75NTR-mediated neuronal death; conditions: Knowles et al., 2013, Tep et al.; cited from earlier work
p75NTR [3] = biological target: T2, p75NTR (Rattus norvegicus, UniProt P07174); test: Intermittent access to 1% sucrose 2BC after intra-DLS administration of LM11A-31; type: in vivo; conditions: intra-DLS LM11A-31 30 μg/μl; IA-2BC 1% sucrose, 30 min; vs vehicle
T2 construct: from tissue; host or cells: dorsolateral striatum (DLS) of living rats
T2 sequence (P07174 30-425): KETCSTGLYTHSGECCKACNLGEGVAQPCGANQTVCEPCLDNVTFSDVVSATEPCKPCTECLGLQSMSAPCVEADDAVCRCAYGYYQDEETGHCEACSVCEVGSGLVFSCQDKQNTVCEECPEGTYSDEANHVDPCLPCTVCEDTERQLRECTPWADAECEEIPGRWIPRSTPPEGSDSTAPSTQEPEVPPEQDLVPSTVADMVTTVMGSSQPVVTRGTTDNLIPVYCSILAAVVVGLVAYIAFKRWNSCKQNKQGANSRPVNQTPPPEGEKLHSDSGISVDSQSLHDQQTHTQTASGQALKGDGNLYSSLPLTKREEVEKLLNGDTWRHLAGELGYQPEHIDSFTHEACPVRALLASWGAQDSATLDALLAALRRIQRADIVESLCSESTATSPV
Description: (§1) The procedure was similar to the IA20%-2BC paradigm described above, except that a sucrose (1%) solution was substituted for alcohol. Rats were tested for sucrose intake in response to intra-DLS administration of LM11A-31 or vehicle 1 week after the conclusion of the alcohol-drinking study. Animals were trained to drink sucrose for 2 weeks before the test day. An independent cohort of rats underwent IA-2BC sucrose-drinking paradigm for 7 weeks before systemic administration of LM11A-31.
(§2) Cannula implantation and microinfusions of BDNF and LM11A-31. Four holes were drilled for screws, and two holes were drilled for cannulae implantation (single cannula, C315GA; PlasticsOne). The coordinates for the DLS were +1.2 mm anterior to Bregma and 3.5 mm lateral to the medial suture. The cannulae were implanted into the lateral part of the dorsal striatum (−4.2 mm from the skull surface) and fixed with dental cement. After 1 week of recovery, the alcohol-drinking procedure resumed, and subjects were habituated to the microinjection procedure with two sham injections (injectors were lowered but no infusion took place). The experimental microinfusions began after each rat reacquired a stable level of drinking. BDNF, LM11A-31, or PBS was infused via a 25 μl Hamilton syringe (#1702), 3 h (BDNF) or 2 h (LM11A-31) before the beginning of the alcohol-drinking session. […]

p75NTR [4] = biological target: T2, p75NTR; test: IA20%-2BC binge drinking after systemic (intraperitoneal) administration of LM11A-31; type: in vivo; conditions: 30 min
Description: (§3) At 8 weeks of age, animals were given 24 hours of access to one bottle of 20% alcohol (v/v) and one bottle of tap water concurrently for a total of 21 sessions of 24 hours during a period of 7 weeks. Drinking sessions started at 12:00 P.M. on Monday, Wednesday, and Friday, with 24 or 48 hours (weekend) of alcohol deprivation between the drinking sessions. The water and alcohol bottles were weighed before the beginning of each drinking session, immediately after the first 30 minutes of access to alcohol and at the end of the session. Rats with escalation of alcohol consumption from session 1 to session 18, reaching a baseline of drinking that was higher than 3.5 g/kg/24 h, were selected for the studies.
Before the beginning of experiments, rats were habituated for 3 days to intraperitoneal administration by daily injections of saline (0.9% NaCl). LM11A-31 (50-150 mg/kg) or vehicle (0.9% saline) was administered intraperitoneally 2 hours before the beginning of the drinking session. Test days occurred once a week, with two alcohol-drinking sessions without treatment that were performed between injections to allow intake to return to baseline. For the highest dose of LM11A-31, vehicle and drug were tested in different animals. […]

p75NTR [5] = biological target: T2, p75NTR; test: IA-2BC 1% sucrose drinking after systemic administration of LM11A-31; type: in vivo; conditions: LM11A-31 150 mg/kg systemic; IA 1% sucrose 2BC 7 weeks; 30 min access
Description: as §1
Before the beginning of experiments, rats were habituated for 3 days to intraperitoneal administration by daily injections of saline (0.9% NaCl). LM11A-31 (50-150 mg/kg) or vehicle (0.9% saline) was administered intraperitoneally 2 hours before the beginning of the drinking session. Test days occurred once a week, with two alcohol-drinking sessions without treatment that were performed between injections to allow intake to return to baseline. For the highest dose of LM11A-31, vehicle and drug were tested in different animals.
To test whether systemic administration of LM11A-31 attenuates binge drinking of sucrose, rats had IA to 1% sucrose in a 2BC paradigm for 7 weeks, and sucrose consumption was measured after 30 min access following LM11A-31 injection.

p75NTR [6] = biological target: T2, p75NTR; test: Intermittent access to 20% alcohol 2BC (IA20%-2BC) binge drinking after intra-DLS infusion of LM11A-31; type: in vivo; conditions: intra-DLS LM11A-31 30 μg/1 μl per side, vs vehicle
Description: as §3
as §2, with “place).” for “place). The experimental microinfusions began after each rat reacquired a stable level of drinking. BDNF, LM11A-31, or PBS was infused via a 25 μl Hamilton syringe (#1702), 3 h (BDNF) or 2 h (LM11A-31) before the beginning of the alcohol-drinking session.”

Jun kinase = conditions: Shi et al., 2013; cited from earlier work
[7] = system: rats with a history of excessive alcohol drinking; test: Operant self-administration of alcohol after intra-DLS administration of BDNF; type: in vivo, rat; conditions: intra-DLS BDNF 0.75 μg/side 3 hours before operant session; 2.5, 10 and 20% alcohol; rats after 5 weeks IA20%-2BC; vs vehicle (PBS)
Description: After 5 weeks of the intermittent access (IA) to 20% alcohol 2BC paradigm (IA20%-2BC), the rats were trained to self-administer alcohol. […] Rats were trained under a fixed ratio 3 schedule; i.e., rats had to press three times to receive one reward. Sessions lasted for the duration of 1 h at the beginning of the training and 30 min after the first 2 weeks. The number of presses on the levers and the number of alcohol deliveries were recorded using MED-PC IV software (Med-Associates).
Cannula implantation and microinfusions of BDNF and LM11A-31. Four holes were drilled for screws, and two holes were drilled for cannulae implantation (single cannula, C315GA; PlasticsOne). The coordinates for the DLS were +1.2 mm anterior to Bregma and 3.5 mm lateral to the medial suture. The cannulae were implanted into the lateral part of the dorsal striatum (−4.2 mm from the skull surface) and fixed with dental cement. […]
To test the possibility that BDNF signaling in the DLS is disrupted after chronic excessive alcohol drinking, the ability of the neurotrophic factor to control alcohol self-administration in rats with a history of excessive alcohol drinking was tested. […] The self-administration of three alcohol concentrations was measured. […]

[8] = system: rats with history of moderate (10%) alcohol drinking; conditions: exogenous BDNF into the DLS, shown previously; cited from earlier work

sucrose intake (p75NTR [3]): unaltered
binge drinking of alcohol (p75NTR [4]; LM11A-31 150 mg/kg intraperitoneally 2 hours before session, IA20%-2BC 7 weeks, vs vehicle): significantly attenuated
water intake (p75NTR [4]; LM11A-31 50-150 mg/kg intraperitoneally 2 hours before session, IA20%-2BC): without altering
binge consumption of sucrose (p75NTR [5]): did not alter
corresponding water intake (p75NTR [5]): unaltered
binge-like alcohol intake (p75NTR [6]; 2 h before 30 min alcohol binge-drinking session): significantly reduced
concurrent water intake (p75NTR [6]; 2 h before 30 min alcohol session): without changing
Molecule: CC[C@H](C)[C@H](N)C(=O)NCCN1CCOCC1 [LM11A-31, Tris[(2S,3S)-2-amino-3-methyl-N-(2-morpholinoethyl)pentanamide]tetra(monohydrogensulfate), monosulfate]
binding between p75NTR and neurotrophins, including BDNF (p75NTR [1]): disrupting the binding
p75NTR-mediated neuronal death [2]: blocks
phosphorylation of Jun kinase (Jun kinase): decreases

B1: BDNF: Brain-derived neurotrophic factor; Human BDNF was purchased from Sigma-Aldrich (protein, UniProt P23560 19-247, looked up)
Neurotrophic factor BDNF …: APMKEANIRGQGGLAYPGVRTHGTLESVNGPKAGSRGLTSLADTFEHVIEELLDEDQKVRPNEENNKDADLYTSRVMLSSQVPLEPPLLFLLEEYKNYLDAANMSMRVRRHSDPARRGELSVCDSISEWVTAADKKTAVDMSGGTVTVLEKVPVSKGQLKQYFYETKCNPMGYTKEGCRGIDKRHWNSQCRTTQSYVRALTMDSKKRIGWRFIRIDTSCVCTLTIKRGR
amount of alcohol consumed [7]: does not decrease; also recorded: did not decrease
number of alcohol deliveries [7]: does not decrease; also recorded: did not decrease
operant alcohol self-administration [8]: reduces
